Measurements published in US20130022612A1, “METHODS AND COMPOSITIONS FOR MALARIA PROPHYLAXIS” (priority 2004, published 2013).
Non-standard residues stand in square brackets, D forms with d. Residues, ends and D or L forms follow the SMILES beside them. *: point of attachment. Sta = CC(C)C[C@H](N)[C@@H](O)CC(=O)O; Isovaleryl = CC(C)CC(=O)*

Tests used:
[1] = system: CSP processing in P. berghei sporozoites; experiment: Pulse-chase metabolic labeling of CSP processing, P. berghei sporozoites; assay type: cell-based, Plasmodium berghei; details: two hour chase at 28° C.; 10 mM E-64, 1 mM PMSF, 0.3 mM aprotinin, 100 mM 3,4 DCl, 75 mM leupeptin, 100 mM TLCK, 1 mM pepstatin, 1 mM 1,10 phenanthroline, 5 mM EDTA
Protocol: P. berghei sporozoites were incubated in Dulbecco's Modified Eagle Medium (DMEM; Invitrogen, Carlsbad, Calif.) without cysteine (Cys) and methionine (Met), containing 1% BSA and […] L-[35 S]-Cys/Met (Pro-Mix, Amersham Pharmacia) in a total volume of 200 μl for one hour at 28° C. They were then washed and resuspended in DMEM/BSA containing unlabeled Cys/Met at 28° C. for the indicated time in the presence or absence of the indicated protease inhibitor. Sporozoites were then lysed and CSP was immunoprecipitated and analyzed by autoradiography as outlined below.
When sporozoites were incubated with specific inhibitors, their concentrations were as follows: 10 […] E-64; 1 mM phenylmethylsulfonyl fluoride (PMSF); 0.3 mM aprotinin; 100 mM 3,4 DCl; 75 mM leupeptin; 100 mM TLCK; 1 mM pepstatin; 1 mM 1,10 phenanthroline; 5 mM EDTA; 0.5% sodium azide. To check for toxicity by propidium iodide (PI) staining, P. berghei sporozoites were incubated in the presence or absence of the various protease inhibitors for two hours at 28° C., PI was then added to a final concentration of […] for five minutes at 28° C. The sporozoites were washed and viewed under a fluorescent microscope.
Metabolically-labeled sporozoites were lysed in lysis buffer (1% Triton X-100, 50 mM Tris-HCl pH 8.0) with 150 mM NaCl containing a protease inhibitor cocktail (Complete Mini-Tablets, Roche) for one hour at 4° C. The lysates were incubated with mAb 3D11 conjugated to agarose overnight at 4° C. with agitation, and the beads were then washed sequentially with lysis buffer containing 150 mM NaCl, high salt buffer (500 mM NaCl in lysis buffer), lysis buffer without added NaCl, and pre-elution buffer (0.5% Triton X-100, 10 mM Tris-HCl pH 6.8). CSP was eluted with 1% SDS in 0.1 M glycine pH 1.8, neutralized with 1.5 M Tris-HCl pH 8.8, and run on a 7.5% SDS-polyacrylamide gel under nonreducing conditions.
P. berghei sporozoites were metabolically labeled as previously described (Bruna-Romero, O., et al.). Briefly, sporozoites were labeled in Dulbecco's Modified Eagle Medium containing 1% BSA (DMEM/BSA) without Cys/Met and with 400 μCi/ml L-[^35S]Cys/Met for one hour at 28° C. and chased in DMEM/BSA with Cys/Met at 28° C. in the presence of 10 μM E-64 or the indicated concentrations of allicin. Labeled sporozoites were lysed in 1% Triton X-100/150 mM NaCl/50 mM Tris-HCl pH 8.0 with protease inhibitors, and lysates were incubated with 3D11-sepharose overnight at 4° C. CSP was eluted with 1% SDS in 0.1 M glycine pH 1.8, neutralized with Tris-HCl pH 8.8, and run on a 7.5% SDS-polyacrylamide gel under nonreducing conditions. The gel was fixed, enhanced with Amplify (Amersham Pharmacia), dried and exposed to film.
P. berghei sporozoites were metabolically labeled in DMEM without Cys/Met, 1% BSA and 400 μCi/ml L-[^355]-Cys/Met for 1 hour at 28° C. and then kept on ice or chased at 28° C. for the indicated times. Details of this procedure are outlined in (Coppi et al., 2005). To investigate the kinetics of processing in the presence of hepatocytes, sporozoites were labeled as above, chased at 28° C. for 1 hour and then centrifuged (300×g) onto glass coverslips with Hepa 1-6 cells and incubated at 37° C. for 5, 15 or 30 minutes. To investigate the effect of antibodies on CSP cleavage, sporozoites were labeled as above and then chased for 2 hours in the presence of the indicated antibody. Monoclonal antibodies were used as purified antibodies at the indicated concentrations and the IgG fraction of the NH2-terminal antiserum was used after isolation by Protein A (Vivapure maxiprepA; Sartorius, Edgewood, N.Y.). In all cases, labeled sporozoites (with or without Hepa 1-6 cells) were lysed and labeled CSP was immunoprecipitated with mAb-3D11 conjugated to sepharose or in the case of P. falciparum CSP, with mAb-2A10 conjugated to sepharose, as previously described (Coppi et al., 2005). CSP was eluted from the beads, run on an SDS-PAGE gel which was enhanced, dried and exposed to film. […]

[2] = biological target: Plasmodium berghei circumsporozoite protein (CSP), full-length, high molecular weight form (Plasmodium berghei) (UniProt P23093); experiment: cell-based or functional assay
P. berghei sporozoites [3] = details: sporozoites incubated with inhibitor for two hours, then metabolically labeled
Protocol: Panel A illustrates P. berghei sporozoites were metabolically labeled with [35 S]-Cys/Met and then washed and kept on ice (lane 1) or chased with cold medium for two hours at 28° C., in the absence (lane 2) or presence of the indicated protease inhibitors (lanes 3-11). After the chase, sporozoites were lysed, CSP was immunoprecipitated and analyzed by SDS-PAGE and autoradiography (abbreviations: Apr, aprotinin; DCl, 3,4 DCl; Leu, leupeptin; Pep, pepstatin; Phen, 1,10 phenanthroline). Panel B illustrates P. falciparum sporozoites were metabolically labeled as above and then kept on ice (lane 1) or chased with cold medium for ninety minutes in the absence (lane 2) or presence of E-64 (lane 3). Samples were processed as outlined above. Panel C illustrates P. berghei sporozoites were preincubated with buffer (lane 1) or the indicated compounds, washed, metabolically labeled with [^35S]-Cys/Met, lysed, and CSP was immunoprecipitated and analyzed by SDS-PAGE and autoradiography. (Abbreviations: Az=sodium azide).
In addition to the above, pulse-chase metabolic labeling experiments were performed with sporozoites of the human malaria parasite, Plasmodium falciparum. […] In order to insure that the protease inhibitors were not toxic to sporozoites, sporozoites were incubated with the various inhibitors for two hours and then propidium iodide (hereinafter, “PI”) was added, which is a fluorescent molecule that enters permeabilized cells.

P. berghei sporozoites [4] = assay type: cell-based, Plasmodium berghei; details: sporozoites preincubated two hours with inhibitor, Hepa 1-6 cells, one hour
Protocol: %invasion=total sporozites−extracellular sporozites×100/total sporozites
Invasion assays were performed as previously described (Pinzon-Ortiz, C., et al.) with some modifications. […] Cells were then washed, fixed, and sporozoites were stained with a double staining assay that distinguishes between intracellular and extracellular sporozoites (Renia, L., et al.). […]

[5] = system: CSP cleavage in P. berghei sporozoites; experiment: Cell contact assay (CSP cleavage on contact with hepatocytes); assay type: cell-based, Plasmodium berghei
Protocol: Hepa 1-6 cells were seeded on glass coverslips at a density of 2×10^5 cells per coverslip and grown until confluent. P. berghei sporozoites were incubated in DMEM±10 mM E-64 at 4° C. for two hours. Thirty minutes before sporozoites were added to coverslips, Cytochalasin D (CD) was added to all samples (final concentration, […]). Sporozoites were centrifuged onto coverslips (1250×g) for five minutes at 4° C. Coverslips were then brought to 37° C. for two minutes, fixed with 4% paraformaldehyde and stained with either mAb 3D11 followed by anti-mouse Ig FITC or the N-terminal antiserum (1:100) followed by anti-rabbit Ig FITC. […] As a control, sporozoites were spun onto coverslips without cells using the protocol outlined above.

Row | Compound | effect on CSP processing [1] | effect on sporozoite invasion (P. berghei sporozoites [4]) | further results
1 | O=C(O)CN(CCN(CC(=O)O)CC(=O)O)CC(=O)O [EDTA] | no effect on CSP processing |  | 
2 | Cc1ccc(S(=O)(=O)N[C@@H](CCCCN)C(=O)CCl)cc1 [TLCK] | inhibited CSP processing |  | 
3 | mAb 3D11 (antibody) |  |  | inhibition of CSP cleavage at 10 µg/ml, pulse-chase metabolic labeling [2]: 50 to 75%
4 | O=S(=O)(F)Cc1ccccc1 [PMSF, phenylmethylsulfonyl fluoride] | inhibited CSP processing | had inhibitory activity | CSP synthesis after incubation with inhibitor (P. berghei sporozoites [3]): not affected
5 | C=C1[C@@H](C)[C@H]2[C@H](Cc3ccccc3)NC(=O)[C@]23[C@H](OC(C)=O)/C=C/[C@@](C)(O)C(=O)[C@@H](C)C/C=C/[C@H]3[C@@H]1O [CD, cytochalasin D] |  |  | percentage staining with the N-terminal antiserum ([5]; experiment 1, no cells, visualized with α-N): 85% ± 1.1; Number of Sporozoites Visualized ([5]; experiment 1, wildtype sporozoites, Hepa 1-6, visualized with 3D11): 244 ± 3; Number of Sporozoites Visualized ([5]; experiment 2, GFP sporozoites, Hepa 1-6, visualized by GFP): 452 ± 8; Number of Sporozoites Visualized ([5]; experiment 2, GFP sporozoites, Hepa 1-6, visualized with α-N): 98 ± 2
6 | CC(C)CC(=O)N[C@H](C(=O)N[C@H](C(=O)N[C@@H](CC(C)C)[C@@H](O)CC(=O)N[C@@H](C)C(=O)N[C@@H](CC(C)C)[C@@H](O)CC(=O)O)C(C)C)C(C)C [pepstatin] (Isovaleryl-VV[Sta]A[Sta]-OH) | no effect on CSP processing | no effect on invasion | 
7 | CC(=O)N[C@@H](CC(C)C)C(=O)N[C@@H](CC(C)C)C(=O)N[C@H](C=O)CCCNC(=N)N [leupeptin] | inhibited CSP processing | had inhibitory activity | CSP synthesis after incubation with inhibitor (P. berghei sporozoites [3]): not affected
8 | aprotinin | Neither compound had an effect on CSP processing | did not have significant inhibitory activity on invasion | 
9 | O=c1oc(Cl)c(Cl)c2ccccc12 [3,4 DCl, 3,4-dichloroisocoumarin] | Neither compound had an effect on CSP processing | did not have significant inhibitory activity on invasion | 
10 | c1cnc2c(c1)ccc1cccnc12 [1,10 phenanthroline] | no effect on CSP processing |  | 
